Legend:
XVir-N-31 = XVir-N-31 fiber DNA qPCR with BET inhibitors and BET degraders; type: cell-based, Mastadenovirus, Type C, Serotype 5; conditions: UMUC-3 (MOI 10) and RT112 (MOI 50), 24 hours post infection
Description: 3×10^4 UMUC-3 cells and 4×10^4 RT112 cells were seeded in 12 well plates in DMEM and RPMI medium. The following day the cells were pretreated with BETi and BETd. 48 hours post seeding the cells were infected with 10 MOI for UMUC-3 and 50 MOI for RT112 and treated with the indicated concentration of BETi and BETd. After each timepoint (4, 24 hour) the cells were washed once with PBS and 200 μl of SDS DNA Lysis Buffer was added. The cells were incubated with Proteinase K before undergoing a Phenol-Chloroform-Isoamylalcohol purification. The DNA was diluted in DNase free water and the concentration of the DNA was determined using a Nanodrop. For each sample a solution of 15 ng/μl was prepared and a RT-qPCR using 75 ng of DNA and a GoTaq Master mix. Specific Fiber forward and reverse primers were used and for the calculation of the Δ ct value specific Actin primers were used as well. For each sample 3 Fiber and 3 Actin values were measured. The calculation was done in excel and each 24 hours was calculated based on its 4 hours value (initial viral entry, before replication).

SK-N-MC cells = experiment: Cell cycle distribution (propidium iodine) of SK-N-MC cells; type: cell-based; conditions: 48 hours post treatment, MK-1775 at 500 nM
Description: 48 hours post treatment cells were washed twice took place with PBS (containing RNase A, 100 U/ml). Cells were trypsinized and centrifuged at 1500 rpm, 4° C. for 5 min. Cells are fixed by adding slowly 1 ml of ice-cold 80% Ethanol drop by drop to the pellet and incubated overnight. Staining was performed by adding 1 ml of staining solution (Propidium Iodine, 50 μg/ml) to the cells and incubating 30-60 min at RT with gentle rocking. MK: MK-1775; LY: LY-2835219.

dl703 = experiment: E1A-independent viral DNA replication of dl703 (fiber qPCR); type: cell-based, Mastadenovirus, Type C, Serotype 5; conditions: UMUC cells, 1 μM CI-1040, 50 MOI dl703, 48 hours post infection
Description: To investigate the differences in replication of dl703 (Mantwill et al. 2013, Journal of Translational Medicine, 11, 216) under different treatment conditions, DNA-replication analysis was performed. 100,000 UMUC cells were seeded in 6-well plates and grown in DMEM medium containing 10% FCS in 5% CO2 conditions at 37° C. 24 hours post seeding cells were treated for 24 hours with 10 μM Lee (Ribociclib), 1 μM CI-1040, 10 μM Nutlin-3a and 10 μM Roscovertine and again after infection adding an appropriate amount of inhibitors to the medium. Infection with 50 MOI dl703 (Mastadenovirus, Type C, Serotype 5 with a 3.2 kb sized deletion in E1 region) took place 24 hours post treatment. After 4 and 48 hours post infection DNA were isolated and qPCR was performed using specific primers for the viral fiber gene. Fiber fwd. 5′-[…]-3′ (SEQ ID NO: 17); Fiber rev. 5′-[…]-3′ (SEQ ID NO: 18).

Rb, phRB and E2F1 = experiment: Western blot of UMUC cells treated with cell cycle inhibitors; type: cell-based, human; conditions: 24 hours post-treatment, LEE-011 at 10 μM, MI-1040 at 1 μM
Description: Western Blot analysis of UMUC cells treated with indicated concentrations of CI-1040, Roscovitine, Nutlin-3a and LEE011 (Ribociclib). 1×10^6 cells were seeded in 10 cm dishes. 24 hours post-treatment proteins were isolated using 1% SDS buffer, to achieve the disruption of the nuclear membrane. All samples were drawn up several times into a syringe to disrupt the DNA and subsequently centrifuged at 30000 rpm at 4° C. for 30 minutes. The supernatant was transferred to a new reaction tube and directly used for further steps or stored at −80° C. To separate the proteins a sodium dodecyl sulfate polyacrylamide gel electrophoresis was performed. By means of electrophoresis for approximately two hours at 100V at 4° C., 40 μg of total proteins were loaded and probed against specific indicated antibodies.

UMUC3 cells = experiment: Cell cycle analysis (flow cytometry) of UMUC3 cells; type: cell-based, human; conditions: UMUC3, 48 hours; Roscovitine 10 μM, CI-1040 1 μM, Nutlin-3a 10 μM, LEE011 10 μM; 10 MOI dl703
Description: FIG. 10 is a bar diagram showing cell cycle distribution in UMUC3 cells, measured 48 hours post treatment, whereby the concentrations of the […] inhibitors was as follows: Roscovitine: 10 μM, CI-1040: 1 μM, Nutlin-3a: 10 μM, and LEE011: 10 μM.
For cell cycle analysis cells were seeded in 6 well plates (2.5×10E4 c/well). 8 hours before infection with dl703, cells were treated with indicated concentration of cell cycle inhibitors. After infection with 10 MOI dl703 cells were again treated for 48 hours. Untreated cells and dl703 infected cells only, served as control. 48h post infection cells were harvest by trypsinization and fixed with 80% ethanol while vortexing. To investigate the cell cycle status, fixed cells were centrifuged 5 min at RT and 300 g and ethanol was aspirated. Cells were resuspended and washed with 1% BSA-PBS (Bovine Serum Albumin) and again centrifuged. Cells were stained with EDU and cell cycle analysis were performed using the Click-iT™ Plus EdU Flow Cytometry Assay Kits, Catalog nos. C10632 from Thermo Fischer. In addition, after 3× times washing with 1% BSA/PBS cells were stained with PI (Propidium Iodine, 50 μg/ml). Measurement was directly performed after staining with a FACScalibur Flow Cytometry System. Data was analyzed with FlowJo software.

T24 cells [1] = experiment: Potency assay/SRB staining, XVir-N-31, Nutlin-3a and Palbociclib; type: cell-based, human; conditions: T24, 30 μM Nutlin-3a, 500 nM Palbociclib, four dpi
Description: (§1) Cell killing using XVir-N-31 alone and in combination with small molecule inhibitors was analysed in 12-well plates. […] At 1 hpi, complete medium with Palbociclib was added to the cells pretreated with Palbociclib. To the control as well as to the Nutlin treated cell complete medium without inhibitors was added.
A potency assay using T24 cells was carried out for determining the cell killing effect of XVir-N-31 alone, XVir-N-31 with Nutlin-3a, XVir-N-31 with Palbociclib, and XVir-N-31 with both Nutlin-3a and Palbociclib.

T24shRB cells = experiment: as above; type: cell-based, human; conditions: 30 μM Nutlin-3a, 500 nM Palbociclib, four dpi
Description: as §1
The same potency assay as subject to Example 27.2 was carried out using T24shRB cells. T24shRB cells are T24 cells without Rb expression. Such lacking Rb expression was generated by means of lentiviral transfection, wherein the lentivirus coded for shRNA directed to Rb. The lentivirus vector used was pLKO-RB1-shRNA19 (obtained from Addgene, Watertown, Mass. 02472, USA), the sequence of the shRNA was as follows […] (SEQ ID NO: 39). The procedure is also described by Michaud K et al. (Cancer Res. 2010 Apr. 15. 70(8):3228-38).

T24 cells [2] = experiment: Potency assay (SRB), XVir-N-31, Palbociclib and PARP inhibitor; type: cell-based; conditions: Homo sapiens, T-24, read-out: IC-80 value
Description: 12,500 T24 cells were seeded per well in 12-well plates and grown over-night in RPMI Medium containing 10% FCS at 37° C. Inhibitor-treatment of cells occurred 24 h past cell seeding and again 1 hour after infection by adding indicated concentration to the medium. Infection of cells took place 24 h past inhibitor-treatment in 250 μl medium without serum. Fixation and SRB-staining took place at 4 days post infection. PD, Palbociclib; PARPi: BMN673.
For SRB staining, the medium was removed by aspiration. Cells were fixed with 1 ml (per well) 10% cold TCA at 4° C. for 1 hour. TCA was removed by aspiration and cell layers were washed 4× with tap water. Cells were stained with 1 ml (per well) 0.5% SRB (sulforhodamine B) in 1% acetic acid for 30 min. Unbound SRB was removed in five washing steps with 1 ml 1% acetic acid/well; after each washing step, acetic acid was removed by aspiration. Plates were air-dried for 2 hrs. To solubilize the SRB stained cells, 200 μl of 10 mM Tris base was added to each well. […] The 96 well plate was loaded into an Elisa-plate reader and absorption of the samples was measured at 560 nm. […]
In order to show the kinetics of a triple therapy of T24 cells using triple therapy comprising XVir-N-31, Palbociclib and a PARP inhibitor (BMN673 (Talazoparib)), a potency assay was carried out and the potency assessed at different points in time. […]

UMUC-3 = experiment: as above; type: cell-based; conditions: Homo sapiens; UMUC3 cells; read-out: IC-80 value
Description: Seeding of UMUC-3: 3000 cells were seeded per well in 12-well plates and grown over-night in DMEM Medium containing 10% FCS at 37° C. Inhibitor-treatment of cell occurred 24 h past seeding and again 1 hour after infection by adding indicated concentration to the medium. Infection of cells took place 24 h past inhibitor-treatment. Fixation and SRB-staining took place at 1-6 days post infection (dpi: days post infection). 160 nM PARPi correspond to the IC-80 value in UMUC3 cells.

T24 and UMUC-3 = experiment: FACS cell cycle analysis, Talazoparib and Palbociclib; type: cell-based, human; conditions: T24 and UMUC-3, 48 hours
Description: The influence of the applied small molecule inhibitors at their indicated concentrations on the cell cycle of bladder cancer cell lines T24 and UMUC-3 was analysed via flow cytometry analysis after DNA staining. 5×10^4 cells were seeded in 6-well plates and 24 hours later treated with appropriate inhibitors. Two days later, at approximately 80% confluency, cells were washed with PBS, trypsinized, washed again and fixated with icecold 80% ethanol. For cell cycle analysis, samples were incubated with the DNA-intercalating dye 7-aminoactinomycine D (7-AAD) and measured via FACS analysis. Evaluation of measured data was performed via the software FlowJo.

253J = experiment: IC50 concentration of PD-0332991; type: cell-based; conditions: Homo sapiens
Description: (§2) The class of CDK4/6 inhibitors as subject to Example 5 requires expression of RB. Therefor, three RB positive and two RB negative bladder cancer derived cell lines were used and the cells treated with the combination therapy. Cell lines were pretreated for 24 hours with an IC50 concentration of PD-0332991 (T24: 500 nM, RT112: 2000 nM, 253J: 100 nM) and infected with XVir-N-31 (T24 MOI50, 253J MOI 25, RT112 MOI450). Values are the average of at least 2 independent experiments. Error bars show the standard error. Four dpi, cell viability was measured using SRB assays (a, c). (b, d) Lysates of cells were prepared 3 dpi and a titer test was performed on Hek293 cells. Viral titer is shown as fold change relative to control

RT112 = experiment: IC50 concentration of PD-0332991; type: cell-based; conditions: Homo sapiens, RT-112
Description: as §2

T24 = experiment: IC50 concentration of PD-0332991; type: cell-based; conditions: Homo sapiens, T-24
Description: as §2

**Q.** How did the “replication of XVir-N-31” value (XVir-N-31) turn out when `COc1nnc2ccc(N3CCC(c4ccc(OCCN5CCN(C)C(=O)[C@H]5C)cc4)CC3)nn12` [AZD5153] was run?
**A.** highest

**Q.** With `CCN1CCN(Cc2ccc(Nc3ncc(F)c(-c4cc(F)c5nc(C)n(C(C)C)c5c4)n3)nc2)CC1` [Abemaciclib] as the compound, how does the cell cycle (SK-N-MC cells) read?
**A.** no effect

**Q.** `O=C(NOCC1CC1)c1ccc(F)c(F)c1Nc1ccc(I)cc1Cl` [CI-1040] was tested. Which “viral DNA replication of dl703” value (dl703) did it give?
**A.** much lower compared to Ribociclib treated cells

**Q.** What about the “Rb, phRB and E2F1 expression” value (Rb, phRB and E2F1) of the same compound?
**A.** induced inhibition

**Q.** What about the cell cycle distribution (UMUC3 cells) of the same compound?
**A.** clear G1-arrest

**Q.** With `C=CCn1c(=O)c2cnc(Nc3ccc(N4CCN(C)CC4)cc3)nc2n1-c1cccc(C(C)(C)O)n1` [MK-1775] as the compound, how does the cell cycle (SK-N-MC cells) read?
**A.** increase of cells in G2/M

**Q.** Which “Rb, phRB and E2F1 expression” value (Rb, phRB and E2F1) does the source give for `COc1ccc(C2=N[C@@H](c3ccc(Cl)cc3)[C@@H](c3ccc(Cl)cc3)N2C(=O)N2CCNC(=O)C2)c(OC(C)C)c1` [Nutlin-3a] here?
**A.** no pronounced effect

**Q.** What about the cell cycle distribution (UMUC3 cells) of the same compound?
**A.** only little or no effect on the cell cycle

**Q.** What about the “cell killing by XVir-N-31” value (T24 cells [1]) of the same compound?
**A.** enhanced cell killing

**Q.** And the “killing of Rb-negative cells by XVir-N-31” value (T24shRB cells)?
**A.** not effective

**Q.** With `Cn1ncnc1[C@H]1c2n[nH]c(=O)c3cc(F)cc(c23)N[C@@H]1c1ccc(F)cc1` [PARPi] as the compound, how does the IC80 (T24 cells [2]) read?
**A.** 15 nM

**Q.** And the IC80 (UMUC-3)?
**A.** 160 nM

**Q.** What about the “G1 arrest on addition of Talazoparib” value (T24 and UMUC-3) of the same compound?
**A.** not influenced

**Q.** Which IC50 (253J) does the source give for `CC(=O)c1c(C)c2cnc(Nc3ccc(N4CCNCC4)cn3)nc2n(C2CCCC2)c1=O` [Palbociclib] here?
**A.** 100 nM

**Q.** What about the IC50 (RT112) of the same compound?
**A.** 2000 nM

**Q.** And the IC50 (T24)?
**A.** 500 nM

**Q.** Which results are given for `CC[C@H](CO)Nc1nc(NCc2ccccc2)c2ncn(C(C)C)c2n1` [Roscovitine]?
**A.** Rb, phRB and E2F1 expression (Rb, phRB and E2F1): no pronounced effect; cell cycle distribution (UMUC3 cells): slight increase of G2/m arrested cells
